According to PMC5120274, “Characterization of the Annonaceous acetogenin, annonacinone, a natural product inhibitor of plasminogen activator inhibitor-1” (Scientific Reports, 2016):

Tests used:
tPA = system: T1, tPA; test: tPA-catalyzed substrate hydrolysis without PAI-1 (control); type: biochemical, human; details: control without PAI-1
T1 construct: purchased Stago BNL (Asnières sur Seine, FR)
Experimental: Compounds from our local collection BioCIS and from the Prestwick compound library (Prestwick chemicals, Illkirch, FR), a collection containing only FDA approved drugs (around 4000 compounds in total) were tested in a chromogenic assay measuring the […] Compounds (20 μL, final concentration 50 μM, 1% DMSO) were dispensed in a 96 well half area Greiner plate. […] At the end of pre-incubation time, 90 μL of the mixture were added to another 96 well half area plate containing 10 μL tPA (final concentration 10 nM). The kinetic was then measured at 405 nm for 45 min at 37 °C in an Envision microplate reader. Progress curves were fitted using the pseudo first order equation to determine the apparent rate constant k.

FeCl3-occluded venules = test: murine model of rtPA-induced thrombolysis by intravital microscopy; type: in vivo, mice
Experimental: Thrombolysis was evaluated in an in vivo mouse model according to the method previously described[18] with modifications. Briefly, platelets of anesthetized mice were fluorescently labeled in vivo by injection of rhodamine 6G (3.3 mg/kg) into the retro-orbital plexus, then thrombus formation was induced by topical deposition on the mesenteric vessels of ferric chloride solution (FeCl3; 15%) in 4- to 5-week-old mice. Thrombus growth was monitored in real-time with an inverted epifluorescent microscope (x10) (Nikon Eclipse TE2000U). Within the 10 minutes after total occlusion of the vessel, the effect of annonacinone was evaluated on the efficiency of rtPA-induced thrombolysis by applying directly on the occluded vessels a thrombolytic cocktail (40 μL) composed of 40 μM rtPA (Actilyse®), 200 μM Argatroban (Arganova®) and 0.2% DMSO or 20 μM annonacinone. The incidence of the recanalization, defined as a partial or complete restoration of flow associated to a decrease of more than 50% of the initial thrombus size, and the evolution of thrombus size were determined during 1 hour.

PAI-1/tPA complex = system: T2, PAI-1/tPA complex; test: PAI-1/tPA complex formation on SDS-PAGE; type: biochemical, human; details: PAI-1 pre-incubated with annonacinone 30 min 37 °C
T2 construct: purchased Stago BNL (Asnières sur Seine, FR)
Experimental: PAI-1 (4 μL, 1 μM) was pre-incubated with 16 μL annonacinone (2% DMSO) for 30 min at 37 °C. Human tPA (4 μL, 0.5 μM) was then added to the mixture and incubated for 15 min at 37 °C. Reaction was stopped by addition of 4X SDS-PAGE loading buffer followed by immediate boiling. Samples were then analyzed on SDS-PAGE followed by silver staining.

[1] = target: T3, PAI-1/vitronectin complex (Homo sapiens, UniProt P05121); test: chromogenic kinetic assay in presence of vitronectin; type: biochemical
T3 construct: purchased Stago BNL (Asnières sur Seine, FR)
T3 sequence (P05121 24-402, one chain of several): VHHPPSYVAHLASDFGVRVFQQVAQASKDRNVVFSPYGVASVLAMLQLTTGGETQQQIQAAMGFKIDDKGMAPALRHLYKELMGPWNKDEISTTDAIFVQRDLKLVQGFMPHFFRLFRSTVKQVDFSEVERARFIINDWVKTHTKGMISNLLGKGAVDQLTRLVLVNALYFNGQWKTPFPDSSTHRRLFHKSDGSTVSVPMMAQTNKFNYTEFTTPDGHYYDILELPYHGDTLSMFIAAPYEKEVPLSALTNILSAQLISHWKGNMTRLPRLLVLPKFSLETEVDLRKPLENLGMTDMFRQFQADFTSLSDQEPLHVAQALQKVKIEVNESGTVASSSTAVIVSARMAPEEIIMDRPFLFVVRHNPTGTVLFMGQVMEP
Experimental: Compounds (20 μL) were dispensed in a 96 well half area Greiner plate. A mixture containing 20 μL of PAI-1 (final concentration 20 nM) and 40 μL of a chromogenic substrate (Spectrozyme-tPA, final concentration 400 μM) was then added, and the mixture pre-incubated for 20 minutes at 37 °C. 40 μL of vitronectin (final concentration 37.5 nM) was added and the mixture further pre-incubated for 20 min at 37 °C. At the end of pre-incubation time, 90 μL of the PAI-1/vitronectin/compound mixture were added to 10 μL of tPA (final concentration 10 nM) and the tPA catalysed substrate hydrolysis reaction was followed for 45 min at 405 nm. Progress curves were then fitted using the pseudo first order equation to determine the apparent rate constant k.

PAI-1 D95A = system: T4, PAI-1 D95A; test: chromogenic screening assay with PAI-1 mutant D95A; type: biochemical; details: ratio of kapp relative to WT (100%)
T4 construct: made in house
Experimental: Compounds from our local collection BioCIS and from the Prestwick compound library (Prestwick chemicals, Illkirch, FR), a collection containing only FDA approved drugs (around 4000 compounds in total) were tested in a chromogenic assay measuring the inhibition rate of tPA-catalyzed spectrozyme® tPA hydrolysis in the presence of PAI-1. Compounds (20 μL, final concentration 50 μM, 1% DMSO) were dispensed in a 96 well half area Greiner plate. A mixture containing 20 μL of PAI-1 (final concentration 20 nM) and 80 μL of Spectrozyme-tPA (final concentration 400 μM) was then added, and the mixture pre-incubated for 45 minutes at 37 °C. At the end of pre-incubation time, 90 μL of the mixture were added to another 96 well half area plate containing 10 μL tPA (final concentration 10 nM). The kinetic was then measured at 405 nm for 45 min at 37 °C in an Envision microplate reader. Progress curves were fitted using the pseudo first order equation to determine the apparent rate constant k.
Mutants were constructed as previously described. […] The effect of annonacinone was measured at 50 μM for each mutant in our chromogenic screening assay. […] For each mutant, the ratio between the apparent rate constants with and without 50 μM annonacinone were calculated and then compared to that of PAI-1 WT to determine the % of annonacinone activity.

SMILES: CCCCCCCCCCCC[C@@H](O)[C@H]1CC[C@H]([C@H](O)CCCCC(=O)CCCCC[C@@H](O)CC2=C[C@H](C)OC2=O)O1 [Annonacinone]
- effect on tPA-catalyzed substrate hydrolysis without PAI-1 (tPA): no effect
- incidence of recanalization (FeCl3-occluded venules; 20 μM annonacinone applied locally with rtPA 40 μM and Argatroban 200 μM, 1 hour, DMSO 0.2% control 28%): 71%
- total number of vessels recanalized per group of 7 mice (FeCl3-occluded venules; 20 μM annonacinone with rtPA 40 μM and Argatroban 200 μM, 1 hour, DMSO control 2/7): 5/7
- decrease of thrombus size from initial size (FeCl3-occluded venules; 35 minutes of treatment, 20 μM annonacinone with rtPA and Argatroban, n = 7, DMSO 3.4 ± 8.5%): 29.7 ± 7.7%
- effect on PAI-1/tPA covalent complex formation (PAI-1/tPA complex): concentration-dependent inhibition
- activity on PAI-1 bound to vitronectin ([1]; 50 μM): inactive
- kapp, annonacinone added to PAI-1 pre-incubated with vitronectin ([1]; 50 μM, PAI-1 pre-incubated with VN 20 min 37 °C, DMSO 1% 1.05 ± […] 10^−2): 2.16 ± 0.17 × 10^−2 s^−1
- kapp, annonacinone pre-incubated with PAI-1 before addition of vitronectin ([1]; 50 μM, pre-incubation with PAI-1 20 min 37 °C, then VN 20 min 37 °C): 2.39 ± 0.32 × 10^−3 s^−1
- IC50 ([1]; annonacinone pre-incubated with PAI-1 before vitronectin): 10 ± 2 µM
- Annonacinone activity 50 μM (% WT) (PAI-1 D95A): 163 ± 24 % WT
